Measured values from US12410160B2 (Gilead Sciences, Inc., priority 2021, dated 2025).
Like-named read-outs stand apart in the source and are kept apart here.

Tests used:
[1] = target: human KHK-C (Homo sapiens (Human), UniProt P50053); experiment: KHK Biochemical Assay (IC50), ADP-Glo, KHK-C; details: average of at least two separate assays
Outline: (§1)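 His-tagged enzyme expressed in BL21 (DE3), Ni-NTA purified. Compounds, serially diluted 1:3 in DMSO, pre-incubated 30 min with enzyme in 50 mM Hepes pH 7.4, 140 mM KCl, 5 mM MgCl2, 0.01% Triton-X, then ATP and fructose added; 4 h at room temperature. ADP formation read by ADP-Glo luminescence.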

[2] = test system: HepG2 cells; experiment: F1P Cell-Based Assay (EC50), 13C6-fructose-1-phosphate in HepG2 cells (cell culture medium or 50% human plasma)
[3] = target: human OATP1B1 (Homo sapiens (Human), UniProt Q9Y6L6); experiment: In Vitro Inhibition Assessment with Human OATP1B1 Transporter; assay type: in vitro ADME; details: HEK293-OATP1B1 cells, probe substrate pravastatin
Outline: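 Pravastatin uptake was measured by LC-MS/MS after a 5 min exposure with inhibitor, following a 15 min inhibitor preincubation, in transfected versus mock HEK293 cells. Transport activity was derived as (transfected − mock) with compound over the same difference with solvent. IC50 is the concentration halving maximal activity; final DMSO was 0.4%.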

[4] = target: KHK-C expressed in NRK-52E cells (Homo sapiens (Human), UniProt P50053); experiment: KHK-C Cell-based Assay (EC50), NRK CTG, fructose-mediated ATP-depletion
[5] = target: human KHK-A (Homo sapiens (Human), UniProt P50053); experiment: KHK Biochemical Assay (IC50), ADP-Glo, KHK-A; details: average of at least two separate assays
Outline: as §1

[6] = Homo sapiens, HepG2, HepG2 cells, 50% human plasma, read-out: F1P 50% HP EC50
[7] = Homo sapiens, HepG2, read-out: F1P 10% FBS EC50, HepG2 cells, cell culture medium (10% FBS)

Chain of KHK-C expressed in NRK-52E cells (P50053 whole entry): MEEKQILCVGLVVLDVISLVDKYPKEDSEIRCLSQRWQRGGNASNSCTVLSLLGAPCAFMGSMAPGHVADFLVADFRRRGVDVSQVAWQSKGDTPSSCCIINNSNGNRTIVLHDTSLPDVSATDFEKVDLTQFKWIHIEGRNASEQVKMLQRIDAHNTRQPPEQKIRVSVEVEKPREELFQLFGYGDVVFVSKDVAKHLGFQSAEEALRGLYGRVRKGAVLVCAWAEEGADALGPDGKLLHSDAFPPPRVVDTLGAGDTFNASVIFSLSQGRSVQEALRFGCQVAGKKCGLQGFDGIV
Chain of human KHK-C (P50053 whole entry): as above
Chain of human OATP1B1 (Q9Y6L6 whole entry): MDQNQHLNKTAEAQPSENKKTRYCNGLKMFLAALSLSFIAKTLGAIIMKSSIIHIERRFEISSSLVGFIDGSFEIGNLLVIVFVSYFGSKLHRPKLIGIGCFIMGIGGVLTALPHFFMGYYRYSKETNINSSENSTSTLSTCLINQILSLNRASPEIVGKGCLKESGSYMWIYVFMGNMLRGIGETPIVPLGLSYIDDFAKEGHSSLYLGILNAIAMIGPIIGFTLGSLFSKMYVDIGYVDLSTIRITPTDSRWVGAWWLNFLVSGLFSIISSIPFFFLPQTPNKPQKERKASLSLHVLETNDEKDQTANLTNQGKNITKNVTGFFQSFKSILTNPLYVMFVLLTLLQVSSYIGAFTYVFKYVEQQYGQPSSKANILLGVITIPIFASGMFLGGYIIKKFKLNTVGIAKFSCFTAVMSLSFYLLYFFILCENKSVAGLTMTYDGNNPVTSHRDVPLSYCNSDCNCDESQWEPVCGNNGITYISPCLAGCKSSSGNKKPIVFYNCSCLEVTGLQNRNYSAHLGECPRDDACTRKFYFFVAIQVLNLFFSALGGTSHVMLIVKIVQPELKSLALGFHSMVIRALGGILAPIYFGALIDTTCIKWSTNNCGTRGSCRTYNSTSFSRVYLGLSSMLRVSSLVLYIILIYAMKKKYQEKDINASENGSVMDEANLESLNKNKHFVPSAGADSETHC
Chain of human KHK-A (P50053 other isoform, or with tags, fused parts or gaps): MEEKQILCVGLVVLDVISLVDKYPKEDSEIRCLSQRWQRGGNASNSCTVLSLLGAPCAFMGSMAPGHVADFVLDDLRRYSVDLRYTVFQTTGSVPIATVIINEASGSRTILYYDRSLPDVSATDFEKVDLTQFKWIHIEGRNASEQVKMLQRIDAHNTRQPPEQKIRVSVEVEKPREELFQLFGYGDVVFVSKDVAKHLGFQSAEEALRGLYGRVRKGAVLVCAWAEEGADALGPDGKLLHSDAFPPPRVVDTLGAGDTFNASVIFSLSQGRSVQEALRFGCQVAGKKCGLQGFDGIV

Row | IC50 ([1]; ADP-Glo) [nM] | EC50 [2, 6] [nM] | EC50 [2, 7] [nM] | IC50 [3] [nM] | EC50 [4] [nM] | IC50 ([5]; ADP-Glo) [nM] | IC50 [1] [nM] | IC50 [5] [nM] | EC50 ([2]; HepG2 cells, 50% human plasma, read-out: F1P 50% HP EC50) [nM] | EC50 ([2]; read-out: F1P 10% FBS EC50, HepG2 cells, cell culture medium (10% FBS)) [nM] | EC50 ([4]; read-out: NRK CTG EC50, NRK-52E cells, Cell-Titer Glo, 25 mM fructose) [nM] | SMILES
1 | 3.3 | 311 | 35.7 | 160 | 37 | 6 |  |  |  |  |  | C[C@H]1CCN1c1nc2c(c(-c3cccc([C@H]4C[C@@H]4C(=O)O)c3)n1)CCC2 (single isomer, unassigned) [Example 89]
2 |  | 37.5 | 23.5 | 5980 | 9.5 |  | 0.2 | 10.9 |  |  |  | C[C@H]1[C@H](O)CN1c1nc(-c2ccc3c(c2)CC[C@@]32COC(=O)N2)c2c(n1)C(F)(F)CC2 (single isomer, unassigned) [Example 476]
3 |  | 18.4 | 5.3 | 17400 | 5.4 |  | 0.2 | 4.6 |  |  |  | C[C@H]1[C@H](O)CN1c1nc(-c2ccc3c(c2)OC[C@@]32COC(=O)N2)c2c(n1)C(F)(F)CC2 (single isomer, unassigned) [Example 483]
4 |  |  |  | 24300 |  |  | 0.2 | 2.4 | 6.4 | 3 | 1.6 | C[C@H]1[C@H](O)CN1c1nc(-c2ccc3c(c2)OC[C@@]32COCC(=O)N2)c2c(n1)C(F)(F)CC2 (single isomer, unassigned) [Example 499]
5 | 6.4 | 36.7 | 18.8 | 13200 | 80.8 | 14 |  |  |  |  |  | C[C@H]1[C@H](O)CN1c1nc(-c2ccc(C(N)=O)cc2)c2c(n1)C(F)(F)CC2 [Example 129, 4-(7,7-difluoro-2-((2S,3R)-3-hydroxy-2-methylazetidin-1-yl)-6,7-dihydro-5H-cyclopenta[d]pyrimidin-4-yl)benzamide]
6 | 51.6 | 191 | 120 | 5920 | 379 | 65.5 |  |  |  |  |  | C[C@H]1[C@H](O)CN1c1nc2c(c(-c3ccc(C(N)=O)cc3)n1)CCC2 [Example 197, 4-[2-[(2S,3R)-3-hydroxy-2-methyl-azetidin-1-yl]-6,7-dihydro-5H-cyclopenta[d]pyrimidin-4-yl]benzamide]
7 | 1.6 | 16.1 | 9.3 | 350 | 9.1 | 6 |  |  |  |  |  | C[C@H]1[C@H](O)CN1c1nc(-c2ccc3c(=O)[nH]ccc3c2)c2c(n1)C(F)(F)CC2 [Example 318, 6-(7,7-difluoro-2-((2S,3R)-3-hydroxy-2-methylazetidin-1-yl)-6,7-dihydro-5H-cyclopenta[d]pyrimidin-4-yl)isoquinolin-1(2H)-one]
8 |  | 2.4 | 1.1 | 22500 | 4.1 |  | 0.9 |  |  |  |  | C[C@H]1CCN1c1nc(-c2ccc3c(c2)CCNC3)c2c(n1)C(F)(F)CC2 [Example 642, 6-[7,7-difluoro-2-[(2S)-2-methylazetidin-1-yl]-5,6-dihydrocyclopenta[d]pyrimidin-4-yl]-1,2,3,4-tetrahydroisoquinoline]
9 |  | 55.2 | 52.4 | 8910 | 630 |  | 3.2 |  |  |  |  | C[C@H]1[C@H](O)CN1c1nc(-c2ccc3c(c2)O[C@H](CO)CNC3=O)c2c(n1)C(F)(F)CC2 [Example 705, (S)-8-(7,7-difluoro-2-((2S,3R)-3-hydroxy-2-methylazetidin-1-yl)-6,7-dihydro-5H-cyclopenta[d]pyrimidin-4-yl)-2-(hydroxymethyl)-3,4-dihydrobenzo[f][1,4]oxazepin-5(2H)-one]
10 |  | 18.4 | 6.7 | 19100 | 3.1 |  | 0.8 |  |  |  |  | C[C@H]1CCN1c1nc(-c2ccc(C3(N)CS(=O)(=O)C3)cc2)c2c(n1)C(F)(F)CC2 [Example 769, (S)-3-amino-3-(4-(7,7-difluoro-2-(2-methylazetidin-1-yl)-6,7-dihydro-5H-cyclopenta[d]pyrimidin-4-yl)phenyl)thietane 1,1-dioxide]
